Test results from paper PMC7488365 (Acta Pharmaceutica Sinica. B, 2019).
Where two headings read alike, the source gives them in different places.

Experiments:
[1] = molecular target: T1, USP28 (Homo sapiens, UniProt Q96RU2); test: biochemical; format: biochemical; details: for inhibition at 12.5 µM: read-out: Inhibition rate at 12.5 μmol/L (%); for Inhibition rate at 12.5 μmol/L (%): 12.5 μmol/L compound, Ub-AMC substrate
T1 sequence (Q96RU2 1-700): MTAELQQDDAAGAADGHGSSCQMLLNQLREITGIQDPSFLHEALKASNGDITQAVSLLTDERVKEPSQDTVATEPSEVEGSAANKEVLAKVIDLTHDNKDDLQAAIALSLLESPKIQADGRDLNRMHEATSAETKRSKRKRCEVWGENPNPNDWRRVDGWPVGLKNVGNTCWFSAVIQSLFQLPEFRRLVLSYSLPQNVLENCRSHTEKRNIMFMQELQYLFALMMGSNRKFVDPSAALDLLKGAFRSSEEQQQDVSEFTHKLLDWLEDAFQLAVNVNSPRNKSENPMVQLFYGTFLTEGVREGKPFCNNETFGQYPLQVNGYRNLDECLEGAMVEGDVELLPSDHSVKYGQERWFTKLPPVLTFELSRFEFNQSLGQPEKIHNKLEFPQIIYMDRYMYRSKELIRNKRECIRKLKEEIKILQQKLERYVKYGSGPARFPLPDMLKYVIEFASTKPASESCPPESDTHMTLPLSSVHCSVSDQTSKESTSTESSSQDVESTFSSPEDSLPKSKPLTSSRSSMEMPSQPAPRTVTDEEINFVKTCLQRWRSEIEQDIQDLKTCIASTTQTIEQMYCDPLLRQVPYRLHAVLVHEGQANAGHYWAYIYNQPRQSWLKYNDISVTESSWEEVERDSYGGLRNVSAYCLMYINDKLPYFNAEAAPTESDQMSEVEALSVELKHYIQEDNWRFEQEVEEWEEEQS

[2] = system: MKN45 cells; test: cells; details: Homo sapiens, MKN-45, 72 h, read-out: IC50 cell viability MKN45
[3] = system: HGC-27 cells; test: MTT cell viability assay, HGC-27; details: Homo sapiens, HGC-27, 72 h, read-out: IC50 cell viability HGC-27
[4] = system: GES-1 cells; test: cells; details: Homo sapiens, GES1, 72 h, read-out: IC50 cell viability GES-1
[5] = system: MGC-803 cells; test: cells; details: Homo sapiens, MGC-803, 72 h, read-out: IC50 cell viability MGC-803
[6] = molecular target: T1, USP28; test: Bio-layer interferometry; format: binding
[7] = system: USP28, LSD1 and total c-Myc in HGC-27 cells; test: Western blotting of USP28, LSD1 and total c-Myc; format: cell-based, human; details: HGC-27, 3 h, even at 40 μmol/L
[8] = molecular target: T1, USP28; details: read-out: EC50 USP28 inhibition; cited from earlier work

SMILES	inhibition at 12.5 µM [1]	IC50 [1]	Inhibition rate at 12.5 μmol/L (%) [1]	also measured
CCCSc1nc(NCc2ccco2)c2nnn(Cc3ccccc3)c2n1 [Compound 5, 3-Benzyl-N-(furan-2-ylmethyl)-5-(propylthio)-3H-[1,2,3]triazolo[4,5-d]pyrimidin-7-amine]	45.6%			IC50 ([1]; read-out: IC50 against USP28, Ub-AMC 100 nmol/L, USP28 62.5 nmol/L): 14.2 ± 0.19 µM
CCCSc1nc(NCCCN2CCOCC2)c2nnn(Cc3ccccc3)c2n1 [Compound 4, 3-Benzyl-N-(3-morpholinopropyl)-5-(propylthio)-3H-[1,2,3]triazolo[4,5-d]pyrimidin-7-amine]		> 100 µM	Inactive	
CCCSc1nc(NCCNC(=O)OC(C)(C)C)c2nnn(Cc3ccccc3)c2n1 [Compound 9, Tert-butyl(2-((3-benzyl-5-(propylthio)-3H-[1,2,3]triazolo[4,5-d]pyrimidin-7-yl)amino)ethyl)carbamate]		> 100 µM	Inactive	
CCCSc1nc(NCCN)c2nnn(CCNC(=O)OC(C)(C)C)c2n1 [Compound 13, Tert-butyl(2-(7-((2-aminoethyl)amino)-5-(propylthio)-3H-[1,2,3]triazolo[4,5-d]pyrimidin-3-yl)ethyl)carbamate]		> 100 µM	Inactive	
CCCSc1nc(NCCN)c2nnn(CCO)c2n1 [Compound 12, 2-(7-((2-Aminoethyl)amino)-5-(propylthio)-3H-[1,2,3]triazolo[4,5-d]pyrimidin-3-yl)ethan-1-ol]		> 100 µM	Inactive	IC50 [2]: > 50 µM; IC50 [3]: > 100 µM; IC50 [4]: > 100 µM; IC50 [5]: > 50 µM; Binding to USP28 (in words) ([6]; BLI): failed to bind; protein levels of USP28, LSD1 and total c-Myc [7]: remained unchanged
CCCSc1nc(NCCN)c2nnn(CCc3c[nH]c4ccccc34)c2n1 [Compound 15, N^1-(3-(2-(1H-Indol-3-yl)ethyl)-5-(propylthio)-3H-[1,2,3]triazolo[4,5-d]pyrimidin-7-yl)ethane-1,2-diamine]	34%	24.8 ± 0.58 µM		
CCCSc1nc(NCCN(C)C)c2nnn(Cc3ccccc3)c2n1 [Compound 10, N^1-(3-Benzyl-5-(propylthio)-3H-[1,2,3]triazolo[4,5-d]pyrimidin-7-yl)-N^2,N^2-dimethylethane-1,2-diamine]		> 100 µM	Inactive	
Cc1nc(NCCN)c2nnn(Cc3ccc(Cl)cc3)c2n1 [Compound 23, N^1-(3-(4-Chlorobenzyl)-5-methyl-3H-[1,2,3]triazolo[4,5-d]pyrimidin-7-yl)ethane-1,2-diamine]	35%	34.8 ± 1.27 µM		
CCCSc1nc(NCCN)c2nnn(CCCc3ccccc3)c2n1 [Compound 14, N^1-(3-(3-Phenylpropyl)-5-(propylthio)-3H-[1,2,3]triazolo[4,5-d]pyrimidin-7-yl)ethane-1,2-diamine]		27.6 ± 2.2 µM		
CCCSc1nc(NC2CC2)c2nnn(Cc3ccccc3)c2n1 [Compound 3, 3-Benzyl-N-cyclopropyl-5-(propylthio)-3H-[1,2,3]triazolo[4,5-d]pyrimidin-7-amine]		> 100 µM	Inactive	
CCCSc1nc(NCCNC(C)=O)c2nnn(Cc3ccc(Cl)cc3)c2n1 [Compound 20, N-(2-((3-(4-Chlorobenzyl)-5-(propylthio)-3H-[1,2,3]triazolo[4,5-d]pyrimidin-7-yl)amino)ethyl)acetamide]		> 100 µM	Inactive	
CCCSc1nc(NCCN)c2nnn(Cc3ccc(O)cc3)c2n1 [Compound 16, 4-((7-((2-Aminoethyl)amino)-5-(propylthio)-3H-[1,2,3]triazolo[4,5-d]pyrimidin-3-yl)methyl)phenol]	36.2%	28.7 ± 1.36 µM		
N#CSc1cc(SC#N)c(N)nc1N [PR-619]				EC50 [8]: ~8 µM

The remaining compounds from weak to strong by IC50 [1], led by results:

inhibition at 12.5 µM [1]	IC50 [1]	Inhibition rate at 12.5 μmol/L (%) [1]	SMILES	also measured
45%	23.3 ± 0.59 µM		NCCNc1nc(SCc2ccccc2)nc2c1nnn2Cc1ccc(Cl)cc1 [Compound 22, N^1-(5-(Benzylthio)-3-(4-chlorobenzyl)-3H-[1,2,3]triazolo[4,5-d]pyrimidin-7-yl)ethane-1,2-diamine]	
23.1%	20.5 ± 1.45 µM		CCCSc1nc(NCc2cccnc2)c2nnn(Cc3ccccc3)c2n1 [Compound 6, 3-Benzyl-5-(propylthio)-N-(pyridin-3-ylmethyl)-3H-[1,2,3]triazolo[4,5-d]pyrimidin-7-amine]	
59.9%	14.5 ± 0.19 µM		C#CCSc1nc(NCCN)c2nnn(Cc3ccc(Cl)cc3)c2n1 [Compound 24, N^1-(3-(4-Chlorobenzyl)-5-(prop-2-yn-1-ylthio)-3H-[1,2,3]triazolo[4,5-d]pyrimidin-7-yl)ethane-1,2-diamine]	
56%	13.21 ± 0.03 µM		CCCSc1nc(NCCN)c2nnn(Cc3ccccc3Cl)c2n1 [Compound 17, N^1-(3-(2-Chlorobenzyl)-5-(propylthio)-3H-[1,2,3]triazolo[4,5-d]pyrimidin-7-yl)ethane-1,2-diamine]	
62.2%	12.3 ± 0.27 µM		NCCNc1ncnc2c1nnn2Cc1ccc(Cl)cc1 [Compound 21, N^1-(3-(4-Chlorobenzyl)-3H-[1,2,3]triazolo[4,5-d]pyrimidin-7-yl)ethane-1,2-diamine]	
50%	10.2 ± 1.3 µM		CCCSc1nc(N2CCNCC2)c2nnn(Cc3ccccc3)c2n1 [Compound 7, 3-Benzyl-7-(piperazin-1-yl)-5-(propylthio)-3H-[1,2,3]triazolo[4,5-d]pyrimidine]	
61.7%	8.55 ± 0.87 µM		CCCSc1nc(NCCNC)c2nnn(Cc3ccccc3)c2n1 [Compound 11, N^1-(3-Benzyl-5-(propylthio)-3H-[1,2,3]triazolo[4,5-d]pyrimidin-7-yl)-N^2-methylethane-1,2-diamine]	
76.7%	6 ± 0.05 µM		CCCSc1nc(NCCN)c2nnn(Cc3ccc(Br)cc3)c2n1 [Compound 18, N^1-(3-(4-Bromobenzyl)-5-(propylthio)-3H-[1,2,3]triazolo[4,5-d]pyrimidin-7-yl)ethane-1,2-diamine]	
80%	4.34 ± 0.3 µM		CCCSc1nc(NCCN)c2nnn(Cc3ccccc3)c2n1 [Compound 8, N^1-(3-benzyl-5-(propylthio)-3H-[1,2,3]triazolo[4,5-d]pyrimidin-7-yl)ethane-1,2-diamine]	Kd [6]: 0.09 µM
